Test results published in patent US8487108B2, “Piperidinyl carbamate intermediates for the synthesis of aspartic protease inhibitors” (Vitae Pharmaceuticals, Inc., priority 2005, dated 2013).

Target: T1, trypsin-activated recombinant human renin (Homo sapiens, UniProt P00797)
T1 sequence (P00797 67-406): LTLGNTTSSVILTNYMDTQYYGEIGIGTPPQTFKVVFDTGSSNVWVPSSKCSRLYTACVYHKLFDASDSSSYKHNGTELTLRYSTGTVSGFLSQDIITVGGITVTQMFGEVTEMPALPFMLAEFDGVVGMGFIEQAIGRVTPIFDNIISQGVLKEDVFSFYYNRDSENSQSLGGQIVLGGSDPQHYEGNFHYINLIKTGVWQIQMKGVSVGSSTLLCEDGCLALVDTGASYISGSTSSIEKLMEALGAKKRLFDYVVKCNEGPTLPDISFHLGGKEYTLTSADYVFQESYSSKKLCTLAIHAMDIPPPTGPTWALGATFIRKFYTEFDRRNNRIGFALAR
Assay: Renin fluorescence assay (internally quenched peptide substrate)
Assay type: biochemical
Conditions: compounds I*
In short: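 Cleavage of an angiotensinogen-derived DABCYL-quenched peptide by trypsin-activated recombinant human renin (0.2-2 nM final) in 50 mM BES, 150 mM NaCl, 0.25 mg/mL BSA, pH 7.0; compounds 10 μM to 1 nM final. Fluorescence (ex 340/em 495 nm) followed 60-360 min at rt; linear-slope rates give percent inhibition versus uninhibited control.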

`CNC[C@H](CC1CCC(O)CC1)NC(=O)N1CCC[C@@H]([C@@H](OCCNC(=O)OC)c2cccc(Cl)c2)C1` (stereo partly drawn) [I*-102a, methyl 2-((R)-(3-chlorophenyl)((R)-1-((S)-1-(4-hydroxycyclohexyl)-3-(methylamino)propan-2-ylcarbamoyl)piperidin-3-yl)methoxy)ethylcarbamate] and `CNC[C@H](CC1CCOCC1)NC(=O)N1CCCC[C@@H]([C@@H](OCCNC(=O)OC)c2cccc(Cl)c2)C1` [I*-108a, methyl 2-((R)-(3-chlorophenyl)((R)-1-((S)-1-(methylamino)-3-(tetrahydro-2H-pyran-4-yl)propan-2-ylcarbamoyl)azepan-3-yl)methoxy)ethylcarbamate] cannot be ordered by IC50: less than 50 nM for the first, less than 50 nM for the second.

`CNC[C@H](CC1CCOCC1)NC(=O)N1CCC[C@@H]([C@@](C)(OCCNC(=O)OC)c2cccc(Cl)c2)C1` [I*-103a, methyl 2-((R)-1-(3-chlorophenyl)-1-((R)-1-((S)-1-(methylamino)-3-(tetrahydro-2H-pyran-4-yl)propan-2-ylcarbamoyl)piperidin-3-yl)ethoxy)ethylcarbamate] and `CNC[C@H](CC1CCOCC1)NC(=O)N1CCC[C@@H]([C@@H](OCCNC(=O)OC)c2cc(F)cc(Cl)c2)C1` [I*-121a, methyl 2-((R)-(3-chloro-5-fluorophenyl)((R)-1-((S)-1-(methylamino)-3-(tetrahydro-2H-pyran-4-yl)propan-2-ylcarbamoyl)piperidin-3-yl)methoxy)ethylcarbamate] cannot be ordered by IC50: less than 20 nM for the first, less than 20 nM for the second.

`CNC[C@H](C[C@H]1CCCCOC1)NC(=O)N1CCC[C@@H]([C@@H](OCCNC(=O)OC)c2cccc(Cl)c2)C1` [I*-106a, methyl 2-((R)-(3-chlorophenyl)((R)-1-((S)-1-(methylamino)-3-((R)-oxepan-3-yl)propan-2-ylcarbamoyl)piperidin-3-yl)methoxy)ethylcarbamate] and `CN[C@H](CNC(=O)N1CCC[C@@H]([C@@H](OCCNC(=O)OC)c2cccc(Cl)c2)C1)C[C@H]1CCCCOC1` [I*-110a, methyl 2-((R)-(3-chlorophenyl)((R)-1-((S)-2-(methylamino)-3-((R)-oxepan-3-yl)propylcarbamoyl)piperidin-3-yl)methoxy)ethylcarbamate] cannot be ordered by IC50: less than 1 nM for the first, less than 1 nM for the second.

`CNC[C@@H](NC(=O)N1CCC[C@@H]([C@@H](OCCNC(=O)OC)c2cc(Cl)ccc2C)C1)[C@@H](O)C1CCCC1` [I*-107a, methyl 2-((R)-(5-chloro-2-methylphenyl)((R)-1-((1S,2R)-1-cyclopentyl-1-hydroxy-3-(methylamino)propan-2-ylcarbamoyl)piperidin-3-yl)methoxy)ethylcarbamate] and `CNC[C@@H](NC(=O)N1CCC[C@@H]([C@@H](OCCNC(=O)OC)c2cc(F)cc(F)c2)C1)[C@@H](O)C1CCCCC1` [I*-112a, methyl 2-((R)-((R)-1-((1S,2R)-1-cyclohexyl-1-hydroxy-3-(methylamino)propan-2-ylcarbamoyl)piperidin-3-yl)(3,5-difluorophenyl)methoxy)ethylcarbamate] cannot be ordered by IC50: less than 10 nM for the first, less than 1 nM for the second.

`COC(=O)NCCO[C@@H](c1cc(Cl)ccc1C)[C@@H]1CCCN(C(=O)NC[C@@H](N)C[C@H]2CCCCOC2)C1` [I*-109a, methyl 2-((R)-((R)-1-((S)-2-amino-3-((R)-oxepan-3-yl)propylcarbamoyl)piperidin-3-yl)(5-chloro-2-methylphenyl)methoxy)ethylcarbamate] and `COC(=O)NCCO[C@@H](c1cc(F)cc(Cl)c1)[C@@H]1CCCN(C(=O)NC[C@@H](N)C[C@H]2CCCCOC2)C1` [I*-122a, methyl 2-((R)-((R)-1-((S)-2-amino-3-((R)-oxepan-3-yl)propylcarbamoyl)piperidin-3-yl)(3-chloro-5-fluorophenyl)methoxy)ethylcarbamate] cannot be ordered by IC50: less than 1 nM for the first, less than 10 nM for the second.

`CNC[C@H](CC1CCCCC1)NC(=S)N1CCC[C@@H]([C@@H](OCCNC(=O)OC)c2cccc(Cl)c2)C1` [I*-111a, methyl 2-((R)-(3-chlorophenyl)((R)-1-((S)-1-cyclohexyl-3-(methylamino)propan-2-ylcarbamothioyl)piperidin-3-yl)methoxy)ethylcarbamate] and `CNC[C@H](CC1CCCCC1)N/C(=N\C#N)N1CCC[C@@H]([C@@H](OCCNC(=O)OC)c2cccc(Cl)c2)C1` [I*-127a, methyl 2-((R)-(3-chlorophenyl)((R)-1-(N′-cyano-N—((S)-1-cyclohexyl-3-(methylamino)propan-2-yl)carbamimidoyl)piperidin-3-yl)methoxy)ethylcarbamate] cannot be ordered by IC50: less than 1 nM for the first, less than 20 nM for the second.

`CNC[C@H](C[C@H]1CCCCOC1)NC(=O)N1CCC[C@@H]([C@@H](OCCNC(=O)OC)c2cc(F)cc(F)c2)C1` [I*-113a, methyl 2-((R)-(3,5-difluorophenyl)((R)-1-((S)-1-(methylamino)-3-((R)-oxepan-3-yl)propan-2-ylcarbamoyl)piperidin-3-yl)methoxy)ethylcarbamate] and `CNC[C@H](CC1CCCCC1)NC(=O)N1CCC[C@@H]([C@@H](OCCNC(=O)OC)c2cc(F)c(F)c(F)c2)C1` [I*-119a, methyl 2-((R)-((R)-1-((S)-1-cyclohexyl-3-(methylamino)propan-2-ylcarbamoyl)piperidin-3-yl)(3,4,5-trifluorophenyl)methoxy)ethylcarbamate] cannot be ordered by IC50: less than 10 nM for the first, less than 10 nM for the second.

`CNC[C@H](CC1CCCCC1)NC(=O)N1CCC[C@@H]([C@@H](OCCNC(=O)OC)c2cc(F)cc(F)c2O)C1` [I*-114a, methyl 2-((R)—((R)-1-((S)-1-cyclohexyl-3-(methylamino)propan-2-ylcarbamoyl)piperidin-3-yl)(3,5-difluoro-2-hydroxyphenyl)methoxy)ethylcarbamate] and `CNC[C@H](CC1CCCCC1)NC(=O)N1CCC[C@@H](C(OCCNC(=O)OC)c2cc(Cl)ccc2F)C1` (stereo partly drawn) [I*-116a, methyl 2-((5-chloro-2-fluorophenyl)((R)-1-((S)-1-cyclohexyl-3-(methylamino)propan-2-ylcarbamoyl)piperidin-3-yl)methoxy)ethylcarbamate] cannot be ordered by IC50: less than 10 nM for the first, less than 10 nM for the second.

`CNC[C@H](CC1CCOCC1)NC(=O)N1CCCC([C@@H](OCCNC(=O)OC)c2c(C)ccc(F)c2F)C1` (stereo partly drawn) [I*-115a, methyl 2-((R)-(2,3-difluoro-6-methylphenyl)(1-((S)-1-(methylamino)-3-(tetrahydro-2H-pyran-4-yl)propan-2-ylcarbamoyl)piperidin-3-yl)methoxy)ethylcarbamate] and `CNC[C@H](CC1CCCCC1)NC(=O)N1CCC[C@@H]([C@@H](OCCNC(=O)OC)c2cc(Cl)ccc2F)C1` [I*-117a, methyl 2-((R)-(5-chloro-2-fluorophenyl)((R)-1-((S)-1-cyclohexyl-3-(methylamino)propan-2-ylcarbamoyl)piperidin-3-yl)methoxy)ethylcarbamate] cannot be ordered by IC50: less than 10 nM for the first, less than 1 nM for the second.

`CNC[C@H](CC1CCCCC1)NC(=O)N1CCC[C@@H]([C@@H](OCCNC(=O)OC)c2ccc(F)c(Cl)c2)C1` [I*-118a, methyl 2-((R)-(3-chloro-4-fluorophenyl)((R)-1-((S)-1-cyclohexyl-3-(methylamino)propan-2-ylcarbamoyl)piperidin-3-yl)methoxy)ethylcarbamate] and `CNC[C@H](CC1CCC(F)(F)CC1)NC(=O)N1CCC[C@@H]([C@@H](OCCNC(=O)OC)c2cccc(F)c2)C1` [I*-120a, methyl 2-((R)—((R)-1-((S)-1-(4,4-difluorocyclohexyl)-3-(methylamino)propan-2-ylcarbamoyl)piperidin-3-yl)(3-fluorophenyl)methoxy)ethylcarbamate] cannot be ordered by IC50: less than 1 nM for the first, less than 1 nM for the second.

Compared with `CNC[C@H](CC12CC3CC(CC1C3)C2)NC(=O)N1CCC[C@@H]([C@@H](OCCNC(=O)OC)c2cccc(F)c2)C1` [I*-123a, methyl 2-((R)-((3R)-1-((S)-1-(3-noradamantyl)-3-(methylamino)propan-2-ylcarbamoyl)piperidin-3-yl)(3-fluorophenyl)methoxy)ethylcarbamate], `CNCC(CC12CCC(CC1)CC2)NC(=O)N1CCC[C@@H]([C@@H](OCCNC(=O)OC)c2cccc(Cl)c2)C1` (stereo partly drawn) [I*-129a, methyl 2-((R)-((3R)-1-(1-(bicyclo[2.2.2]octan-1-yl)-3-(methylamino)propan-2-ylcarbamoyl)piperidin-3-yl)(3-chlorophenyl)methoxy)ethylcarbamate] is higher in IC50: less than 10 nM for the first, greater than 50 nM for the second. The first is the more potent here.

`CNC[C@H](C[C@H]1C[C@@H](F)[C@@H](F)C1)NC(=O)N1CCC[C@@H]([C@@H](OCCNC(=O)OC)c2cccc(Cl)c2)C1` [I*-124a, methyl 2-((R)-(3-chlorophenyl)((R)-1-((S)-1-((1r,3S,4R)-3,4-difluorocyclopentyl)-3-(methylamino)propan-2-ylcarbamoyl)piperidin-3-yl)methoxy)ethylcarbamate] and `CNCC(C[C@@H]1C[C@@H](F)[C@@H](F)C1)NC(=O)N1CCC[C@@H]([C@@H](OCCNC(=O)OC)c2cccc(Cl)c2)C1` (stereo partly drawn) [I*-125a, methyl 2-((R)-(3-chlorophenyl)((R)-1-((S)-1-((1s,3R,4S)-3,4-difluorocyclopentyl)-3-(methylamino)propan-2-ylcarbamoyl)piperidin-3-yl)methoxy)ethylcarbamate] cannot be ordered by IC50: less than 20 nM for the first, less than 10 nM for the second.

Work on `CNC[C@H](CC1CCCCC1)NC(=O)N1CCC[C@@H]([C@@H](OCCNc2nccs2)c2cccc(Cl)c2)C1` [I*-128a, (R)-3-((R)-(3-chlorophenyl)(2-(thiazol-2-ylamino)ethoxy)methyl)-N-((S)-1-cyclohexyl-3-(methylamino)propan-2-yl)piperidine-1-carboxamide] yielded an IC50 greater than 50 nM.
